In patent publication US8835464B2, “Triazole compounds that modulate HSP90 activity” (Synta Pharmaceuticals Corp., priority 2006, dated 2014):
Counter-ions that a name gives are not always drawn.

system: Hsp90; assay: IC50 of compounds of the invention, Example B Method 2 (Tables 6-9); format: cell-based, human; settings: Table 7; Her2 degradation / inhibition of Hsp90; Method 2: MV-4-11 cells, 72 hours, Cell Counting Kit-8; read-out: IC50

| SMILES | IC50 |
| --- | --- |
| CC(C)c1cc(-c2nnc(NC(=O)C(F)(F)F)n2-c2ccc3c(ccn3C)c2)c(O)cc1O [Compound 18a, N-(5-(2,4-dihydroxy-5-isopropylphenyl)-4-(1-methyl-1H-indol-5-yl)-4H-1,2,4-triazol-3-yl)-2,2,2-trifluoroacetamide] | 3000 nM |
| CC(C)c1cc(-c2nnc(Nc3cccc(N)c3)n2-c2ccc3c(ccn3C)c2)c(O)cc1O [Compound 6a, 4-(5-(3-aminophenylamino)-4-(1-methyl-1H-indol-5-yl)-4H-1,2,4-triazol-3-yl)-6-isopropylbenzene-1,3-diol] | 2900 nM |
| CC(=O)Nc1nnc(-c2cc(C(C)C)c(O)cc2O)n1-c1ccc2c(ccn2C)c1 [Compound 11a, N-(5-(2,4-dihydroxy-5-isopropylphenyl)-4-(1-methyl-1H-indol-5-yl)-4H-1,2,4-triazol-3-yl)acetamide] | 382 nM |
| CC(C)c1cc(-c2nnc(NC(=O)C3CCCC3)n2-c2ccc3c(ccn3C)c2)c(O)cc1O [Compound 20a, N-(5-(2,4-dihydroxy-5-isopropylphenyl)-4-(1-methyl-1H-indol-5-yl)-4H-1,2,4-triazol-3-yl)cyclopentanecarboxamide] | 5920 nM |
| CC(C)c1cc(-c2nnc(NC(=O)c3ccco3)n2-c2ccc3c(ccn3C)c2)c(O)cc1O [Compound 15a, N-(5-(2,4-dihydroxy-5-isopropylphenyl)-4-(1-methyl-1H-indol-5-yl)-4H-1,2,4-triazol-3-yl)furan-2-carboxamide] | 1040 nM |
| Cc1cc(C(=O)Nc2nnc(-c3cc(C(C)C)c(O)cc3O)n2-c2ccc3c(ccn3C)c2)no1 [Compound 10a, N-(5-(2,4-dihydroxy-5-isopropylphenyl)-4-(1-methyl-1H-indol-5-yl)-4H-1,2,4-triazol-3-yl)-5-methylisoxazole-3-carboxamide] | 7860 nM |
| COc1cccc(Nc2nnc(-c3cc(C(C)C)c(O)cc3O)n2-c2ccc3c(ccn3C)c2)c1 [Compound 8a, 4-isopropyl-6-(5-(3-methoxyphenylamino)-4-(1-methyl-1H-indol-5-yl)-4H-1,2,4-triazol-3-yl)benzene-1,3-diol] | 1800 nM |
| CC(C)c1cc(-c2nnc(Nc3ccccc3)n2-c2ccc3c(ccn3C)c2)c(O)cc1O [Compound 1a, 4-Isopropyl-6-[4-(1-methyl-1H-indol-5-yl)-5-phenylamino-4H-[1,2,4]triazol-3-yl]-benzene-1,3-diol] | 1400 nM |

The next lines start with the values.

| IC50 | SMILES |
| --- | --- |
| 680 nM | CC(C)c1cc(-c2nnc(Nc3ccc4ncccc4c3)n2-c2ccc3c(ccn3C)c2)c(O)cc1O [Compound 5a, 4-isopropyl-6-(4-(1-methyl-1H-indol-5-yl)-5-(quinolin-6-ylamino)-4H-1,2,4-triazol-3-yl)benzene-1,3-diol] |
| 1460 nM | CC(C)c1cc(-c2nnc(NC(=O)Cc3ccccc3)n2-c2ccc3c(ccn3C)c2)c(O)cc1O [Compound 16a, N-(5-(2,4-dihydroxy-5-isopropylphenyl)-4-(1-methyl-1H-indol-5-yl)-4H-1,2,4-triazol-3-yl)-2-phenylacetamide] |
| 2600 nM | CC(C)c1cc(-c2nnc(NC(=O)c3ccccc3)n2-c2ccc3c(ccn3C)c2)c(O)cc1O [Compound 9a, N-(5-(2,4-dihydroxy-5-isopropylphenyl)-4-(1-methyl-1H-indol-5-yl)-4H-1,2,4-triazol-3-yl)benzamide] |
| 35000 nM | CC(C)c1cc(-c2nnc(NCc3ccccc3)n2-c2ccc3c(ccn3C)c2)c(O)cc1O [Compound 3a, 4-Isopropyl-6-[4-(1-methyl-1H-indol-5-yl)-5-benzylamino-4H-[1,2,4]triazol-3-yl]-benzene-1,3-diol] |
| 1560 nM | CC(C)C(=O)Nc1nnc(-c2cc(C(C)C)c(O)cc2O)n1-c1ccc2c(ccn2C)c1 [Compound 14a, N-(5-(2,4-dihydroxy-5-isopropylphenyl)-4-(1-methyl-1H-indol-5-yl)-4H-1,2,4-triazol-3-yl)isobutyramide] |

same assay, conditions: Table 8; Her2 degradation / inhibition of Hsp90; Method 2: MV-4-11 cells, 72 hours, Cell Counting Kit-8

| SMILES | IC50 |
| --- | --- |
| CCNC(=O)Sc1nnc(-c2ccc(OC(=O)N(C)C)cc2OC(=O)N(C)C)n1-c1cccc2ccccc12 [Compound 6b, 4-(5-(ethylcarbamoylthio)-4-(naphthalen-1-yl)-4H-1,2,4-triazol-3-yl)-1,3-phenylene bis(dimethyl carbamate)] | > 100000 nM |

same assay, conditions: Table 8; Her2 degradation / inhibition of Hsp90; Method 2: MV-4-11 cells, 72 hours, Cell Counting Kit-8; read-out: IC50

| SMILES | IC50 |
| --- | --- |
| COCCOc1ccc(-c2nnc(S)n2-c2cccc3ccccc23)c(O)c1 [Compound 5b, 2-(5-mercapto-4-(naphthalen-1-yl)-4H 1,2,4-triazol-3-yl)-5-(2-methoxyethoxy) phenol] | 30000 nM |
| CC(C)c1cc(-c2nn(C(=O)C(N)Cc3ccccc3)c(=O)n2-c2ccc3c(ccn3C)c2)c(OC(=O)C(N)Cc2ccccc2)cc1OC(=O)C(N)Cc1ccccc1 (centres unmarked) [Compound 17b, 4-(1-(2-amino-3-phenylpropanoyl)-4-(1-methyl-1H-indol-5-yl)-5-oxo-4,5-dihydro-1H-1,2,4-triazol-3-yl)-6-isopropyl-1,3-phenylene bis(2-amino-3-phenylpropanoate) trihydrochloride] | 46 nM |
| CC(C)c1cc(-c2nn(COC(=O)C(N)C(C)C)c(=O)n2-c2ccc3c(ccn3C)c2)c(O)cc1O (centres unmarked) [Compound 12b, (3-(2,4-dihydroxy-5-isopropylphenyl)-4-(1-methyl-1H-indol-5-yl)-5-oxo-4,5-dihydro-1H-1,2,4-triazol-1-yl)methyl 2-amino-3-methylbutanoate] | 29 nM |

More lines, now with the values ahead:

| IC50 | SMILES |
| --- | --- |
| 40 nM | CC(=O)n1ccc2cc(-n3c(O)nnc3-c3cc(C(C)C)c(O)cc3O)ccc21 [Compound 9b, 1-(5-(3-(2,4-dihydroxy-5-isopropylphenyl)-5-hydroxy-4H-1,2,4-triazol-4-yl)-1H-indol-1-yl)ethanone] |
| < 100 nM | COCCC(=O)Oc1cc(O)c(-c2nnc(OC(=O)CCOC)n2-c2ccc3c(ccn3C)c2)cc1C(C)C [Compound 18b, 5-hydroxy-2-isopropyl-4-(5-(3-methoxypropanoyloxy)-4-(1-methyl-1H-indol-5-yl)-4H-1,2,4-triazol-3-yl)phenyl 3-methoxypropanoate] |
| > 2000 nM | CCc1cc(-c2nnc(S)n2-c2cccc3ccccc23)c(OC(=O)c2ccccc2)cc1OC(=O)c1ccccc1 [Compound 4b, 4-ethyl-6-(5-mercapto-4-(naphthalen-1-yl)-4H-1,2,4-triazol-3-yl)-1,3-phenylene dibenzoate] |
| < 110 nM | CC(C)c1cc(-c2nnc(O)n2-c2ccc3c(ccn3C(=O)CCNC(=O)OC(C)(C)C)c2)c(O)cc1O [Compound 10b, tert-butyl 3-(5-(3-(2,4-dihydroxy-5-isopropylphenyl)-5-hydroxy-4H-1,2,4-triazol-4-yl)-1H-indol-1-yl)-3-oxopropylcarbamate] |

same assay, conditions: Table 9; Her2 degradation / inhibition of Hsp90; Method 2: MV-4-11 cells, 72 hours, Cell Counting Kit-8; dihydrochloride; read-out: IC50 Range

| SMILES | IC50 |
| --- | --- |
| CC(C)c1cc(-c2nnc(O)n2-c2ccc(N3CCN(C)CC3)nc2)c(O)cc1O [Compound 9d, 4-(5-hydroxy-4-(6-(4-methylpiperazin-1-yl)pyridin-3-yl)-4H-1,2,4-triazol-3-yl)-6-isopropylbenzene-1,3-diol dihydrochloride] | 220 nM |

same assay, conditions: Table 9; Her2 degradation / inhibition of Hsp90; Method 2: MV-4-11 cells, 72 hours, Cell Counting Kit-8; hydrochloride; read-out: IC50 Range

| SMILES | IC50 |
| --- | --- |
| CC(C)c1cc(-c2nnc(O)n2-c2ccc(N(C)C)c(S(N)(=O)=O)c2)c(O)cc1O [Compound 13d, 5-(3-(2,4-dihydroxy-5-isopropylphenyl)-5-hydroxy-4H-1,2,4-triazol-4-yl)-2-(dimethylamino)benzene sulfonamide hydrochloride] | 207 nM |

same assay, conditions: Table 9; Her2 degradation / inhibition of Hsp90; Method 2: MV-4-11 cells, 72 hours, Cell Counting Kit-8; read-out: IC50 Range

| SMILES | IC50 |
| --- | --- |
| CC(C)c1cc(-c2nnc(O)n2-c2ccc(OCCN3CCOCC3)nc2)c(O)cc1O [Compound 20d, 4-(5-hydroxy-4-(6-(2-morpholinoethoxy)pyridin-3-yl)-4H-1,2,4-triazol-3-yl)-6-isopropylbenzene-1,3-diol] | 114 nM |
| COC(CN(C)c1ccc(-n2c(O)nnc2-c2cc(C(C)C)c(O)cc2O)cn1)OC [Compound 2d, 4-(4-(6-(N-(2,2-dimethoxyethyl)-N-methylamino)pyridin-3-yl)-5-hydroxy-4H-1,2,4-triazol-3-yl)-6-isopropylbenzene-1,3-diol] | 107 nM |
| CC(C)c1cc(-c2nnc(O)n2-c2ccc(N3CCN(C)CC3)nc2)c(O)cc1O [Compound 8d, 4-(5-hydroxy-4-(6-(4-methylpiperazin-1-yl)pyridin-3-yl)-4H-1,2,4-triazol-3-yl)-6-isopropylbenzene-1,3-diol] | 243 nM |
| CC(C)c1cc(-c2nnc(O)n2-c2ccc(N(C)CC(=O)O)nc2)c(O)cc1O [Compound 4d, 2-(N-(5-(3-(2,4-dihydroxy-5-isopropylphenyl)-5-oxo-1H-1,2,4-triazol-4(5H)-yl)pyridin-2-yl)-N-methylamino)acetic acid] | 330 nM |

Further lines, results first:

| IC50 | SMILES |
| --- | --- |
| 220 nM | CC(C)c1cc(-c2nnc(O)n2-c2ccc(N(C)CCN(C)C)nc2)c(O)cc1O [Compound 5d, 4-(4-(6-(N-(2-(dimethylamino)ethyl)-N-methylamino)pyridin-3-yl)-5-hydroxy-4H-1,2,4-triazol-3-yl)-6-isopropylbenzene-1,3-diol] |
| 30 nM | COCCN(C)c1ccc(-n2c(O)nnc2-c2cc(C(C)C)c(O)cc2O)cn1 [Compound 1d, 4-(4-(6-(N-(2-methoxyethyl)-N-methylamino)pyridin-3-yl)-5-hydroxy-4H-1,2,4-triazol-3-yl)-6-isopropylbenzene-1,3-diol] |
| 93 nM | Cc1ccc(-n2c(O)nnc2-c2cc(C(C)C)c(O)cc2O)cc1S(=O)(=O)N(C)C [Compound 11d, 5-(3-(2,4-dihydroxy-5-isopropylphenyl)-5-hydroxy-4H-1,2,4-triazol-4-yl)-N,N,2-trimethylbenzenesulfonamide] |
| 49 nM | CC(C)c1cc(-c2nnc(O)n2-c2ccc(N3CCOCC3)nc2)c(O)cc1O [Compound 19d, 4-(5-hydroxy-4-(6-morpholinopyridin-3-yl)-4H-1,2,4-triazol-3-yl)-6-isopropylbenzene-1,3-diol] |
| 336 nM | CC(C)c1cc(-c2nnc(O)n2-c2ccc(N(C)C)c(S(N)(=O)=O)c2)c(O)cc1O [Compound 12d, 5-(3-(2,4-dihydroxy-5-isopropylphenyl)-5-hydroxy-4H-1,2,4-triazol-4-yl)-2-(dimethylamino)benzene sulfonamide] |
